Blank lines part the entries; values can stand above or below the compound they belong to. Active and inactive are the calls of the source. The calls are words filed in the database; no cut-off is given here.
How the values were obtained:
[1] = MRT (0 to infinity) in Sprague-Dawley rat at 1.8 mg/kg, iv measured for 24 hrs by LC-MS/MS analysis; assay type: ADME, organism-based; conditions: in vivo
CWR22R [2] = test: Inhibition of cell viability in ARV7-positive human 22Rv1 cells by Steady-Glo luciferase assay; assay type: functional, cell-based
[3] = Elimination rate constant in Sprague-Dawley rat at 1.8 mg/kg, iv measured for 24 hrs by LC-MS/MS analysis; assay type: ADME, organism-based; conditions: in vivo
[4] = AUC (0 to infinity) in Sprague-Dawley rat at 25 mg/kg, IG measured for 24 hrs by LC-MS/MS analysis; assay type: ADME, organism-based; set-up: time 24 hrs, dose 25 mg/kg, route ig; conditions: in vivo, po
[5] = Tmax in Sprague-Dawley rat at 25 mg/kg, IG measured for 24 hrs by LC-MS/MS analysis; assay type: ADME, organism-based; conditions: in vivo, po
[6] = MRT (0 to t) in Sprague-Dawley rat at 1.8 mg/kg, iv measured for 24 hrs by LC-MS/MS analysis; assay type: ADME, organism-based; conditions: in vivo
[7] = Inhibition of cell viability in human adipose stromal cells by CCK8 assay; assay type: toxicity, cell-based
[8] = target: T1, Androgen receptor (Homo sapiens) (UniProt P10275); test: Inhibition of androgen receptor in human 22Rv1 cells assessed as decrease in HGF mRNA level at 1 uM incubated for 36 hrs by RNA sequencing analysis; assay type: cell-based
T1 sequence (whole entry): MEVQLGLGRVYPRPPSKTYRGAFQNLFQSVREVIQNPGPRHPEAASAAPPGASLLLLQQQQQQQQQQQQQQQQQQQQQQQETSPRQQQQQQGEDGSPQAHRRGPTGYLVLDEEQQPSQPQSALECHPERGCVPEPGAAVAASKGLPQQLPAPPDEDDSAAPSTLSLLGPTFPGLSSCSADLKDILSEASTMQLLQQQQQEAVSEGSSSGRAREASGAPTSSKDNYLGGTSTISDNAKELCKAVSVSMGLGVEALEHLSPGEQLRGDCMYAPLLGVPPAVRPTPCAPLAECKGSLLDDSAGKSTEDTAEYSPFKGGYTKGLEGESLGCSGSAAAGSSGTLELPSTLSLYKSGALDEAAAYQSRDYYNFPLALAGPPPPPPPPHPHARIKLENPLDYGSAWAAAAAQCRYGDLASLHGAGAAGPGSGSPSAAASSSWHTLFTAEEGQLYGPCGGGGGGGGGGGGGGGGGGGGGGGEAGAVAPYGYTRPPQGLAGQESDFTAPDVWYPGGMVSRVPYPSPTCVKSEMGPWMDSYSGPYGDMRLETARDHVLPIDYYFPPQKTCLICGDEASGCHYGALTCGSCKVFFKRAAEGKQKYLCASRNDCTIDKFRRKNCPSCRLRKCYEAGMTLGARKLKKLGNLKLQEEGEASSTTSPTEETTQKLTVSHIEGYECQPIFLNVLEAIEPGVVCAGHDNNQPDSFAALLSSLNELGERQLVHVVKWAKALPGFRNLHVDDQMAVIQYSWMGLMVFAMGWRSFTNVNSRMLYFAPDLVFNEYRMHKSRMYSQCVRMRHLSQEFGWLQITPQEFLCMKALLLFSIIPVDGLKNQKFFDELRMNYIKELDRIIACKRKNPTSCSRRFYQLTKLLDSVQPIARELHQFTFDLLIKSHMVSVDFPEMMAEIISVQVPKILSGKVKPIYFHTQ

DU-145 = test: Inhibition of cell viability in AR-independent human DU-145 cells by Steady-Glo luciferase assay; assay type: functional, cell-based
[9] = C0 in Sprague-Dawley rat at 1.8 mg/kg, iv measured for 24 hrs by LC-MS/MS analysis; assay type: ADME, organism-based; conditions: in vivo
[10] = Cmax in Sprague-Dawley rat at 25 mg/kg, IG measured for 24 hrs by LC-MS/MS analysis; assay type: ADME, organism-based; set-up: dose 25 mg/kg, time 24 hrs, route ig; conditions: in vivo, po
[11] = Clearance in Sprague-Dawley rat at 1.8 mg/kg, iv measured for 24 hrs by LC-MS/MS analysis; assay type: ADME, organism-based; conditions: in vivo
[12] = AUC (0 to t) in Sprague-Dawley rat at 25 mg/kg, IG measured for 24 hrs by LC-MS/MS analysis; assay type: ADME, organism-based; set-up: dose 25 mg/kg, time 24 hrs, route ig; conditions: in vivo, po
LNCaP C4-2B = test: Inhibition of cell viability in AR-dependent human LNCaP C4-2B cells by Steady-Glo luciferase assay; assay type: functional, cell-based
[13] = Oral bioavailability in Sprague-Dawley rat at 25 mg/kg measured for 24 hrs by LC-MS/MS analysis; assay type: ADME, organism-based; conditions: in vivo
[14] = target: T1, Androgen receptor (Homo sapiens); test: Inhibition of androgen receptor transfected in human HEK293T cells incubated for 24 to 72 hrs by Western blot analysis; assay type: cell-based; conditions: dose 0.5-1 µM, time 24-72 hrs
[15] = Half life in Sprague-Dawley rat at 1.8 mg/kg, iv measured for 24 hrs by LC-MS/MS analysis; assay type: ADME, organism-based; conditions: in vivo
[16] = Elimination rate constant in Sprague-Dawley rat at 25 mg/kg, IG measured for 24 hrs by LC-MS/MS analysis; assay type: ADME, organism-based; conditions: in vivo, po
[17] = Toxicity in SCID C.B17 mouse xenografted with human 22Rv1 cells assessed as body weight loss at 50 mg/kg/day, IG measured for 21 days; assay type: organism-based, CWR22R; conditions: in vivo, po, 504 h, time 21 day
[18] = Drug uptake in C57BL6 mouse plasma at 25 mg/kg, po via gavage measured for 4 hrs by LC-MS/MS analysis; assay type: ADME, organism-based; conditions: in vivo
HEK-293T = test: Downregulation of AR-v1 expression transfected in human HEK293T cells at 0.5 to 1 uM incubated for 24 to 72 hrs by Western blot analysis; assay type: functional, cell-based; conditions: dose 0.5-1 µM, time 24-72 hrs
CWR22R [19] = test: Antitumor activity against human 22Rv1 cells xenografted in SCID C.B17 mouse assessed as tumor growth inhibition by measuring tumor weight at 50 mg/kg/day, IG measured for 21 days by caliper method; assay type: functional, organism-based; conditions: time 21.0 day
LNCaP = test: Inhibition of cell viability in AR-dependent human LNCaP cells by Steady-Glo luciferase assay; assay type: functional, cell-based
[20] = AUC (0 to t) in Sprague-Dawley rat at 1.8 mg/kg, iv measured for 24 hrs by LC-MS/MS analysis; assay type: ADME, organism-based; set-up: time 24 hrs, dose 1.8 mg/kg, route iv; conditions: in vivo
[21] = AUC (0 to infinity) in Sprague-Dawley rat at 1.8 mg/kg, iv measured for 24 hrs by LC-MS/MS analysis; assay type: ADME, organism-based; set-up: dose 1.8 mg/kg, time 24 hrs, route iv; conditions: in vivo
[22] = MRT (0 to infinity) in Sprague-Dawley rat at 25 mg/kg, IG measured for 24 hrs by LC-MS/MS analysis; assay type: ADME, organism-based; conditions: in vivo, po
[23] = MRT (0 to t) in Sprague-Dawley rat at 25 mg/kg, IG measured for 24 hrs by LC-MS/MS analysis; assay type: ADME, organism-based; conditions: in vivo, po
[24] = Half life in Sprague-Dawley rat at 25 mg/kg, IG measured for 24 hrs by LC-MS/MS analysis; assay type: ADME, organism-based; conditions: in vivo, po
[25] = target: T1, Androgen receptor (Homo sapiens); test: Inhibition of androgen receptor transfected in human HEK293T cells at 0.5 to 1 uM by Western blot analysis; assay type: cell-based; conditions: dose 0.5-1 µM, time 24-72 hrs, TDE = time-dependent effect
PC-3 = test: Inhibition of cell viability in AR-independent human PC-3 cells by Steady-Glo luciferase assay; assay type: functional, cell-based
[26] = Volume of distribution at steady state in Sprague-Dawley rat at 1.8 mg/kg, iv measured for 24 hrs by LC-MS/MS analysis; assay type: ADME, organism-based; conditions: in vivo, read-out: Vdss
CWR22R [27] = test: Antitumor activity against human 22Rv1 cells xenografted in SCID C.B17 mouse assessed as tumor growth inhibition by measuring tumor volume at 50 mg/kg/day, IG measured for 21 days by caliper method; assay type: functional, organism-based; conditions: time 21.0 day
[28] = Metabolic stability in mouse liver microsomes assessed as intrinsic clearance measured per mg protein; assay type: ADME, Microsome; conditions: read-out: CLH
[29] = Metabolic stability in mouse liver microsomes assessed as half life; assay type: ADME, Microsome
[30] = Distribution coefficient, logD of compound by chromatography; assay type: physicochemical; conditions: octanol/water

IC50 (PC-3): 32.5 µM
SMILES: CC(C)n1nc(-c2ccccc2)ncc1=O
IC50 (CWR22R [2]): 0.92 µM

IC50 (PC-3): 42.9 µM
SMILES: N#CCCCn1nc(-c2ccccc2)ncc1=O
IC50 (CWR22R [2]): 3.03 µM

IC50 (PC-3): 3.34 µM
SMILES: O=c1cnc(-c2ccccc2)nn1-c1ccc(Cl)cc1
IC50 (CWR22R [2]): 1.4 µM

IC50 (PC-3): 10.8 µM
SMILES: CC(C)CCn1nc(-c2ccccc2)ncc1=O
IC50 (CWR22R [2]): 0.64 µM

microsomal CLint [28]: 296 µL/min/mg
half-life [29]: 0.1 h
chromatographic logD [30]: 3.8
IC50 (PC-3): 10.1 µM
SMILES: O=c1cnc(-c2ccccc2)nn1C1CCCC1
IC50 (CWR22R [2]): 0.49 µM

Drug uptake [18]: Not Active
IC50 (PC-3): 4.37 µM
SMILES: Cc1nc(Cn2nc(-c3ccccc3)ncc2=O)cs1
IC50 (CWR22R [2]): 0.69 µM

IC50 (PC-3): > 10 µM
SMILES: O=c1cnc(-c2ccccc2)nn1-c1ccccc1
IC50 (CWR22R [2]): 2.19 µM

Further lines, the compound ahead of its results:

SMILES: O=c1cnc(Cc2ccccc2)nn1Cc1ccc(Cl)cc1Cl
MRT inf [1]: 7.65 h
IC50 (CWR22R [2]): 0.18 µM
k el at 24 h [3]: 2.5e-05 s⁻¹
AUC(0-inf) [4]: 27.5 µg·h/mL
Tmax [5]: 4 h
MRT last at 24 h [6]: 5.05 h
IC50 [7]: 3.33 µM
inhibition [8]: Active
IC50 (DU-145): 1.85 µM
C0 at 24 h [9]: 12.6 µg/mL
Cmax [10]: 1.91 µg/mL
clearance [11]: 0.121 L/h/kg
AUC(0-t) at 24 h [12]: 26.5 µg·h/mL
IC50 (LNCaP C4-2B): 0.32 µM
bioavailability [13]: 12.6%
inhibition [14]: Dose-Dependent Effect
half-life [15]: 8.02 h
k el at 24 h [16]: 4.17e-05 s⁻¹
Activity [17]: Non-Toxic
Drug uptake [18]: Active
Activity (HEK-293T): inactive
TGI (CWR22R [19]): Active
IC50 (LNCaP): 0.17 µM
AUC(0-t) at 24 h [20]: 14.3 µg·h/mL
AUC(0-inf) [21]: 15.7 µg·h/mL
MRT inf [22]: 9.27 h
MRT last at 24 h [23]: 8.4 h
half-life [24]: 4.59 h
inhibition [25]: Tde
IC50 (PC-3): 1.48 µM
Vd [26]: 0.87 L/kg
TGI (CWR22R [27]): Active

SMILES: O=c1cnc(-c2cccc(Br)c2)nn1Cc1cccc(Cl)c1
IC50 (CWR22R [2]): 3.25 µM
IC50 (PC-3): 11.8 µM

SMILES: O=c1cnc(Cc2ccccc2)nn1Cc1ccc(Cl)c(Cl)c1
IC50 (CWR22R [2]): 0.2 µM
Drug uptake [18]: Not Active
IC50 (PC-3): 2.14 µM

SMILES: O=c1cnc(Cc2ccccc2)nn1Cc1ccccc1
IC50 (CWR22R [2]): 0.74 µM
IC50 (PC-3): 9.79 µM

SMILES: O=c1cnc(Cc2ccccc2)nn1CC1CCCCC1
IC50 (CWR22R [2]): 3.23 µM
IC50 (PC-3): 2.94 µM

SMILES: O=c1cnc(-c2ccccc2)nn1Cc1ccc(Cl)cc1
IC50 (CWR22R [2]): 0.6 µM
Drug uptake [18]: Not Active
IC50 (PC-3): 10.9 µM

SMILES: O=c1cnc(-c2ccccc2)nn1Cc1cccc(C(F)(F)F)c1
IC50 (CWR22R [2]): 0.22 µM
Drug uptake [18]: Not Active
IC50 (PC-3): 5.28 µM

SMILES: O=c1cnc(-c2ccccc2)nn1Cc1ccccc1Cl
IC50 (CWR22R [2]): 0.27 µM
microsomal CLint [28]: 181 µL/min/mg
half-life [29]: 0.167 h
chromatographic logD [30]: 4.3
IC50 (PC-3): 2.55 µM

SMILES: COc1ccc(Cn2nc(-c3cccc(OC)c3)ncc2=O)cc1
IC50 (CWR22R [2]): 3.12 µM
IC50 (PC-3): > 10 µM

SMILES: COc1cccc(-c2ncc(=O)n(Cc3ccc(Cl)c(Cl)c3)n2)c1
IC50 (CWR22R [2]): 3.31 µM
IC50 (PC-3): > 10 µM

SMILES: O=c1cnc(-c2ccccc2)nn1Cc1ccc(Cl)nc1
IC50 (CWR22R [2]): 0.09 µM
Drug uptake [18]: Not Active
IC50 (PC-3): 3.23 µM

SMILES: O=c1cnc(Cc2ccccc2)nn1Cc1cccc(C(F)(F)F)c1
IC50 (CWR22R [2]): 0.13 µM
Drug uptake [18]: Not Active
IC50 (PC-3): 2.52 µM

SMILES: O=c1cnc(Cc2ccccc2)nn1CC1CC1
IC50 (CWR22R [2]): 0.39 µM
IC50 (PC-3): 0.6 µM

SMILES: COc1cccc(-c2ncc(=O)n(Cc3ccc(Cl)cc3Cl)n2)c1
IC50 (CWR22R [2]): 0.15 µM
IC50 (PC-3): 0.43 µM

SMILES: O=c1cnc(-c2cccc(Cl)c2)nn1Cc1cccc(Cl)c1
IC50 (CWR22R [2]): 2.66 µM
IC50 (PC-3): 11.4 µM

Source: ChEMBL document CHEMBL5335810, “1,3-Disubstituted-1,2,4-triazin-6-ones with potent activity against androgen receptor-dependent prostate cancer cells” (Bioorg Med Chem, 2024)
